Where two headings read alike, the source gives them in different places.
Legend:
[1] = Rat serum assay (release of NRB or NRB analogue); assay type: in vitro ADME; conditions: 80% rat serum, 37° C., 3 h, n = 3
Experimental: The hydrolytic stability of compounds of the invention in rat blood was evaluated using in vitro rat serum obtained from Sigma-Aldrich and stored at −78° C. Similar assay conditions to those reported by Li Di and co-workers (Int. J. Pharm. 2005, 297, 110-119) were followed [200 μL total volume, 80% rat serum (diluting with phosphate buffer (0.1 M, pH 7.4)), at a final compound concentration of 200 μM, 2.5% DMSO overall, 37° C., 3 h, n=3] using an Eppendorf Thermomixer Compact. Reactions were quenched by transferring 150 μL of the incubation mixture to 450 μL of ice-cold acetonitrile, affording a final compound/NRB or NRB analogue concentration of 50 μM. Samples were centrifuged at 14,500×g for 15 min using an Eppendorf Mini Spin Plus centrifuge, at ambient temperature. 400 μL of the supernatant was removed and transferred to clean tubes. Analysis was by RP-LCMS at an injection volume of 20 μL. Each compound and corresponding NRB or NRB analogue were subjected to external calibration curves at 50 μM, 100 μM and 200 μM to allow conversion of absorbance unit area into nmol, from which the percentage of NRB or NRB analogue released from each compound was calculated.

rat caudal artery = test: Rat caudal artery ring contractile force (vasoconstrictory activity); set-up: species or system rat (male Wistar)
Experimental: Male Wistar rats (150-250 g) were obtained from Charles River Italia (Milano, Italy) and killed by decapitation. Ventral caudal artery was isolated, placed in Tyrode solution at room temperature and cleaned of extraneous fatty and connective tissue under a dissection microscope. All vessels were cut into rings 2 mm long, mounted on a custom-built plexiglass support by means of two intraluminal tungsten wires and placed in 20 mL double-jacketed organ baths filled with Tyrode solution of the following composition (mM): NaCl 125, KCl 5, CaCl2 2.7, MgSO4 1, KH2PO4 1.2, NaHCO3 25 and glucose 11, maintained at 37° C., pH 7.35, bubbled with 95% O2 and […]. The endothelium was removed by gently rubbing the lumen of the rings with a very thin rough-surfaced tungsten wire (caudal artery). The mechanical activity of the rings was detected by means of an isometric force transducer (Ugo Basile, Comerio, Italy) coupled to a pen recorder (Ugo Basile, Comerio, Italy). Rings were passively stretched to impose a resting tension (2 g) and were allowed to equilibrate for 60 min. After equilibration, each ring was repeatedly simulated with both KCl (90 mM) and phenylephrine (10 μM) until reproducible responses were obtained. To verify the absence of the endothelium, rings contracted with 1 μM phenylephrine were exposed to […] carbamylcholine. […] Each compound was tested for the vasoconstrictor activity at a concentration of 50 μM, which has been previously reported to be the one evoking the maximal response to norbormide. The contractile responses to the compounds were expressed as percent of the 90 mM KCl response.

[2] = Simulated gastric fluid (SGF) hydrolytic stability assay; assay type: physicochemical; conditions: simulated gastric fluid without pepsin, pH 1.2, 37° C., 1 h, n = 3; for % NRB released, Hydrolytic Stability (simulated gastric fluid): footnote c: compounds not exhibiting vasoconstriction
Experimental: All in vivo candidates were subjected to a 1 h hydrolytic stability appraisal in the presence of SGF, without pepsin (United States Pharmacopoeia 24) [200 μL total volume, sodium chloride solution (0.03 M) acidified to pH 1.2 with concentrated hydrochloric acid, at a final compound concentration of 200 μM, 2.5% DMSO overall, 37° C., n=3], to investigate any potential chemical instabilities that may occur in the acidic environment of the stomach prior to uptake. Analysis was by RP-LCMS at an injection volume of 5 μL.

Sprague Dawley rats = test: In vivo lethality, oral gavage; set-up: species or system rat (Sprague Dawley); conditions: rat, n = 2
Experimental: Sprague Dawley rats (150-200 g) were used to appraise the rodenticidal activity of the compounds put forward for in vivo evaluation. Briefly, prior to administration the compounds were dissolved in 0.2 M hydrochloric acid (5% DMSO overall), to the desired dose, and without delay either injected intravenously, via the tail, or orally gavaged. All treated animals were housed in a quiet room and monitored every minute (i.v) or every 15 min (oral) to verify early signs of toxicity.

[3] = Table 5, compounds of formula (III)
[4] = Table 1, read-out: Vasoconstriction: maximum contractile effect as a % of 90 mM KCl contraction
[5] = Table 3, read-out: Vasoconstriction: maximum contractile effect as a % of 90 mM KCl contraction

| Compound | % NRB released, Rat Serum [1] [%] | Vasoconstriction: maximum contractile effect as a % of 90 mM KCl contraction (rat caudal artery; Table 1, compound at 50 μM) [%] | Vasoconstriction: maximum contractile effect as a % of 90 mM KCl contraction (rat caudal artery; Table 4, pre-cleavage, n = 3) [%] | Vasoconstriction: maximum contractile effect as a % of 90 mM KCl contraction (rat caudal artery; [3]) [%] | Vasoconstriction: maximum contractile effect as a % of 90 mM KCl contraction (rat caudal artery; n = 3, pre-cleavage, Table 6) [%] | % NRB released, Hydrolytic Stability [2] [%] | In vivo lethality (oral) (Sprague Dawley rats; 40 mg/Kg) | also measured |
| --- | --- | --- | --- | --- | --- | --- | --- | --- |
| CCCCCCCCCCCC(=O)OCCN1C(=O)C2C3C=C(C(O)(c4ccccc4)c4ccccn4)C(C3=C(c3ccccc3)c3ccccn3)C2C1=O (stereo not drawn) [Compound 112, N-2′-Dodecanoyloxyethyl-5-(α-hydroxy-α-2-pyridylbenzyl)-7-(α-2-pyridylbenzylidene)-5-norbornene-2,3-dicarboximide] | 19.3 ± 1.3 | 0 | 0 | – | – | – | – | % NRB released, Hydrolytic Stability (simulated gastric fluid) [2]: 0^c % |
| O=C(CCC(=O)OCN1C(=O)C2C3C=C(C(O)(c4ccccc4)c4ccccn4)C(C3=C(c3ccccc3)c3ccccn3)C2C1=O)OCCOC(=O)CCC(=O)OCN1C(=O)C2C3C=C(C(O)(c4ccccc4)c4ccccn4)C(C3=C(c3ccccc3)c3ccccn3)C2C1=O (stereo not drawn) [Compound 27, N-[α-(Ethylenebis(hydrogensuccinoyloxy))methyl]-5-(α-hydroxy-α-2-pyridylbenzyl)-7-(α-2-pyridylbenzylidene)-5-norbornene-2,3-dicarboximide dimer] | 20.8 ± 0.7 | – | – | 0 | 0 | 0 | – | – |
| O=C(C=Cc1ccccc1)OCCCCN1C(=O)C2C3C=C(C(O)(c4ccccc4)c4ccccn4)C(C3=C(c3ccccc3)c3ccccn3)C2C1=O (stereo not drawn) [Compound 137, N-4′-Cinnamoyloxybutyl-5-(α-hydroxy-α-2-pyridylbenzyl)-7-(α-2-pyridylbenzylidene)-5-norbornene-2,3-dicarboximide] | 81.0 ± 0.8 | 0 | 0 | – | – | – | – | % NRB released, Hydrolytic Stability (simulated gastric fluid) [2]: 0^c % |
| O=C(CCCCC(=O)OCN1C(=O)C2C3C=C(C(O)(c4ccccc4)c4ccccn4)C(C3=C(c3ccccc3)c3ccccn3)C2C1=O)OCN1C(=O)C2C3C=C(C(O)(c4ccccc4)c4ccccn4)C(C3=C(c3ccccc3)c3ccccn3)C2C1=O (stereo not drawn) [Compound 22, N-Adipoyloxymethyl-5-(α-hydroxy-α-2-pyridylbenzyl)-7-(α-2-pyridylbenzylidene)-5-norbornene-2,3-dicarboximide dimer] | 13.4 ± 0.2 | – | – | 0 | 0 | 0 | – | – |
| O=C(OCN1C(=O)C2C3C=C(C(O)(c4ccccc4)c4ccccn4)C(C3=C(c3ccccc3)c3ccccn3)C2C1=O)c1ccc(C(=O)OCN2C(=O)C3C4C=C(C(O)(c5ccccc5)c5ccccn5)C(C4=C(c4ccccc4)c4ccccn4)C3C2=O)cc1 (stereo not drawn) [Compound 26, 5-(α-Hydroxy-α-2-pyridylbenzyl)-7-(α-2-pyridylbenzylidene)-N-terephthaloyloxymethyl-5-norbornene-2,3-dicarboximide dimer] | <5 | – | – | 0 | 0 | 0 | – | – |
| O=C(C=Cc1ccccc1)OCCN1C(=O)C2C3C=C(C(O)(c4ccccc4)c4ccccn4)C(C3=C(c3ccccc3)c3ccccn3)C2C1=O (stereo not drawn) [Compound 120, N-2′-Cinnamoyloxyethyl-5-(α-hydroxy-α-2-pyridylbenzyl)-7-(α-2-pyridylbenzylidene)-5-norbornene-2,3-dicarboximide] | 14.1 ± 0.4 | 66 | 66 | – | – | – | – | % NRB released, Hydrolytic Stability (simulated gastric fluid) [2]: 0^c % |
| O=C(OCCN1C(=O)C2C3C=C(C(O)(c4ccccc4)c4ccccn4)C(C3=C(c3ccccc3)c3ccccn3)C2C1=O)c1ccc(C(=O)OCCN2C(=O)C3C4C=C(C(O)(c5ccccc5)c5ccccn5)C(C4=C(c4ccccc4)c4ccccn4)C3C2=O)cc1 (stereo not drawn) [Compound 143, 5-(α-Hydroxy-α-2-pyridylbenzyl)-7-(α-2-pyridylbenzylidene)-N-2′-terephthaloyloxyethyl-5-norbornene-2,3-dicarboximide dimer] | 27.5 ± 1.4 | – | – | 0 | 0 | 0 | – | – |
| O=C(OCN1C(=O)C2C3C=C(C(O)(c4ccccc4)c4ccccn4)C(C3=C(c3ccccc3)c3ccccn3)C2C1=O)C(c1ccccc1)c1ccccc1 (stereo not drawn) [Compound 17, N-Diphenylacetyloxymethyl-5-(α-hydroxy-α-2-pyridylbenzyl)-7-(α-2-pyridylbenzylidene)-5-norbornene-2,3-dicarboximide] | – | – | 0 | – | – | – | no^h | Emax (rat caudal artery; [4]): 0% |
| COC(=O)C(N)CC(=O)OCCN1C(=O)C2C3C=C(C(O)(c4ccccc4)c4ccccn4)C(C3=C(c3ccccc3)c3ccccn3)C2C1=O.O=C(O)C(F)(F)F (stereo not drawn) [Compound 343, 5-(α-Hydroxy-α-2-pyridylbenzyl)-N-[2′-(α-methylaspartoyloxy)ethyl]-7-(α-2-pyridylbenzylidene)-5-norbornene-2,3-dicarboximide trifluoroacetate] | – | 140 | 149 | – | – | – | yes^h,i | In vivo lethality (oral) (Sprague Dawley rats; 20 mg/Kg): yes^h,i |
| CCCCCCCCOC(=O)CN1C(=O)C2C3C=C(C(O)(c4ccccc4)c4ccccn4)C(C3=C(c3ccccc3)c3ccccn3)C2C1=O (stereo not drawn) [Compound 369, 5-(α-Hydroxy-α-2-pyridylbenzyl)-N-octyloxycarbonylmethyl-7-(α-2-pyridylbenzylidene)-5-norbornene-2,3-dicarboximide] | – | – | 0 | – | – | – | no^h | Emax (rat caudal artery; [5]): 0% |
| O=C(CN1C(=O)C2C3C=C(C(O)(c4ccccc4)c4ccccn4)C(C3=C(c3ccccc3)c3ccccn3)C2C1=O)OCC=Cc1ccccc1 (stereo not drawn) [Compound 371, N-Cinnamoxycarbonylmethyl-5-(α-hydroxy-α-2-pyridylbenzyl)-7-(α-2-pyridylbenzylidene)-5-norbornene-2,3-dicarboximide] | – | – | 0 | – | – | – | no^h | Emax (rat caudal artery; [5]): 0% |
| CCCCCCCC(=O)NCCN1C(=O)C2C3C=C(C(O)(c4ccccc4)c4ccccn4)C(C3=C(c3ccccc3)c3ccccn3)C2C1=O (stereo not drawn) [Compound 364, 5-(α-Hydroxy-α-2-pyridylbenzyl)-N-2′-octanamidoethyl-7-(α-2-pyridylbenzylidene)-5-norbornene-2,3-dicarboximide] | – | – | 21 | – | – | – | yes^h,i | Vasoconstriction: maximum contractile effect as a % of 90 mM KCl contraction (rat caudal artery; Table 2, compound at 50 μM): 21%; In vivo lethality (oral) (Sprague Dawley rats; 20 mg/Kg): yes^h,i |
| CC(=O)Nc1ccc(C=CC(=O)OCCN2C(=O)C3C4C=C(C(O)(c5ccccc5)c5ccccn5)C(C4=C(c4ccccc4)c4ccccn4)C3C2=O)cc1 (stereo not drawn) [Compound 337, N-[2′-(4″-Acetamidocinnamoyloxy)ethyl]-5-(α-hydroxy-α-2-pyridylbenzyl)-7-(α-2-pyridylbenzylidene)-5-norbornene-2,3-dicarboximide] | – | – | 97 | – | – | – | yes^h | Emax (rat caudal artery; [4]): 97% |

Source: patent US9198420B2, “Rodenticidal norbormide analogues” (priority 2012, dated 2015)
